PMC7355497 (Pharmaceutics, 2020)
Where a name gives a salt, the structure may show the parent alone.

What was measured:
[1] = cited from earlier work
P-gp = P-gp (Homo sapiens, UniProt P08183); conditions: 15 min, 10 μM
Chain of P-gp (P08183 whole entry): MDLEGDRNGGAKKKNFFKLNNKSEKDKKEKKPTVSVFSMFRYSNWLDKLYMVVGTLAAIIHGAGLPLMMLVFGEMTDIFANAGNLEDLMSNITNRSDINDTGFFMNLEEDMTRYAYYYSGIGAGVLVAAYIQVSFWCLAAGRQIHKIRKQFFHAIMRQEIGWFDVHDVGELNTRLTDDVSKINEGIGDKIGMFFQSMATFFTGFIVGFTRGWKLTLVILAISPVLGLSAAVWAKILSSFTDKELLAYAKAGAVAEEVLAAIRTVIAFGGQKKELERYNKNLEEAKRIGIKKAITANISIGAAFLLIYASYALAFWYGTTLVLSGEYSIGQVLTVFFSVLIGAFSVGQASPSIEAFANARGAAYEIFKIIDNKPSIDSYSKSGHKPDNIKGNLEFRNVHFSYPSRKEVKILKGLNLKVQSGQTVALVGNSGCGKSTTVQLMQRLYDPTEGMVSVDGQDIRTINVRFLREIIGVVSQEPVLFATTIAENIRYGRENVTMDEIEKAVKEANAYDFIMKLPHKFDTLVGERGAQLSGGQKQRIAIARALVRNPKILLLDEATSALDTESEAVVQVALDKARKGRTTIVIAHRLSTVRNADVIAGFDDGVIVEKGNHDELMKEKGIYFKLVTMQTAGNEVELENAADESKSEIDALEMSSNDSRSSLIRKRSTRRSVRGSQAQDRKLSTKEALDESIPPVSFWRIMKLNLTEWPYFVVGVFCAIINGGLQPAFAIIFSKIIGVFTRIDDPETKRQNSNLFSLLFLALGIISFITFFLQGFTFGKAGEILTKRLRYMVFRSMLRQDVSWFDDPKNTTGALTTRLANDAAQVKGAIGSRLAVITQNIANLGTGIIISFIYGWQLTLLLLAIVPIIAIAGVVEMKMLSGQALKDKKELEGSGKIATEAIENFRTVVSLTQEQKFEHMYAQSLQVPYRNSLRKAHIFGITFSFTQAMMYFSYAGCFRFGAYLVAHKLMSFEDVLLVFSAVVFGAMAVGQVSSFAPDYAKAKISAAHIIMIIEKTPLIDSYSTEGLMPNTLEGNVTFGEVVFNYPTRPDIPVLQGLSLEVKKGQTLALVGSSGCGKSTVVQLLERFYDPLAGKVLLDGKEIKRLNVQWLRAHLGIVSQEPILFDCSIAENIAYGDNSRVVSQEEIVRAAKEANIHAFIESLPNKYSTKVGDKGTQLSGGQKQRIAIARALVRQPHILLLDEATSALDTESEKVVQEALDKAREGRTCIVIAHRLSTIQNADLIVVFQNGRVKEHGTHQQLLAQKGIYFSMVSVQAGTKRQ
Procedure: The P-gp inhibition effect of anthraquinones from R. acetosa was evaluated via MDR assay kit using Caco-2 cells. […] The MDR dye-loading solution was added at a volume of 100 μL and incubated. Fluorescence intensity was detected with a microplate reader Synerge H1 (Biotek, Winooski, VT, USA) at a wavelength of 490 nm for the excitation and 525 nm for the emission.

Q: What does the source list for `CC(C)(C(=O)O)c1ccc(C(O)CCCN2CCC(C(O)(c3ccccc3)c3ccccc3)CC2)cc1` (stereo not drawn) [fexofenadine, Fexofenadine hydrochloride]?
A: Fraction of dose excreted into feces as the unchanged form [1]: 80%; Fraction of dose excreted into urine as the unchanged form [1]: 11%

Q: For `Cc1cc(O)c2c(c1)C(=O)c1cc(O)cc(O)c1C2=O` [emodin], which “Fluorescence intensity as percentage of control group (P-gp inhibition)” value (P-gp) is on record?
A: 147.2% ± 12.4
